Test results from patent US20030157182A1, “Pharmaceutical preparations and their manufacture” (priority 2000, published 2003).

Key:
[1] = Particle size distribution by volume, Malvern Mastersizer 2000; assay type: physicochemical; settings: for d(0.5): volume median diameter, μm
Text: (§1) Using the Malvern Mastersizer 2000 we have examined the particle size by volume of a range of materials. The Mastersizer 2000 utilises a log-normal scale for description of particle sizes. We have then examined the data statistically to determine normalized Kurtosis by copying the particle size data into Microsoft Excel and performing the “KURT” function according to the method given in Example 1. Kurtosis values for those materials are given in Table 1 along with volume median diameters. A mesokurtic normal distribution has a normalized Kurtosis value of zero.
(i) The active particles were suspended (using stirring and sonication) in cyclohexane with 0.1% lecithin. Sufficient active particles were used to ensure the necessary obscuration;
(ii) The suspension was placed in the wet cell of the Malvern Mastersizer 2000 and the particle size distribution was measured using an appropriate lens system;
(iii) The results were analysed using the proprietary software of the Mastersizer 2000 to produce the size distribution given in Table 2.

[2] = Normalised Kurtosis of the particle size distribution (Microsoft Excel KURT function on Mastersizer classes); assay type: physicochemical; settings: for Normalised Kurtosis: particle size by volume, Mastersizer 2000 classes, 0 = mesokurtic normal distribution; for normalized Kurtosis: positive = narrow size distribution
Text: The normalized Kurtosis is defined in formula (2) above and can be derived for a given particle size distribution by using any of a number of widely available statistical software packages, for example, Microsoft Excel.
A large number of data points is required to provide an accurate analysis of the Kurtosis of a particle size distribution. Indeed a true Kurtosis value would require the exact size of every particle in a distribution.
as §1
(iv) The results shown in Table 2 were analysed using the KURT function of Microsoft Excel which gave the normalized Kurtosis value of 6.93.

[3] = listed as paracetamol material according to the invention
[4] = listed as commercial grade of paracetamol

Row | SMILES | volume median diameter / volume median particle size ([1]; listed as milled paracetamol) [μm] | d(0.5) [1] [µm] | Normalised Kurtosis [2] | normalized Kurtosis ([2]; listed as milled paracetamol) | polydispersity of particle size distribution ([1]; FIG. 2, compared to the Sigma paracetamol starting material) | volume median diameter / volume median particle size [1, 3] [μm] | normalized Kurtosis [2] | normalized Kurtosis [2, 3] | volume median diameter / volume median particle size [1, 4] [μm] | normalized Kurtosis [2, 4]
1 | CC(=O)Nc1ccc(O)cc1 [Paracetamol Milled Sigma, Paracetamol] | 12 | 12 | −1.10 | −1.1 | – | – | – | – | – | –
2 | CC(=O)Nc1ccc(O)cc1 [Paracetamol from Example 1, Paracetamol] | – | 21 | 6.93 | – | much reduced polydispersity | 12 | 6.93 | 6.9 | – | –
3 | CC(=O)Nc1ccc(O)cc1 [Sigma Paracetamol, Paracetamol] | – | 19 | −0.43 | – | – | – | – | – | 19 | −0.43
